From paper PMC3914206

Assays:
Format in all cases: binding
panel of 442 kinases [1] = molecular target: T1, panel of 442 kinases (Homo sapiens, UniProt Q86UX6); conditions: kinase YANK3; compound concentration 10 µM
T1 construct: purchased KINOMEscan
From the text: (§1) We assessed the selectivity of members of this scaffold using the KINOMEscan methodology across a near comprehensive panel of 442 kinases [[18,27]].

panel of 442 kinases [2] = molecular target: T2, panel of 442 kinases (Homo sapiens, UniProt Q99759); conditions: Compound Concentration 10 µM
T2 construct: purchased KINOMEscan
T2 sequence (Q99759 1-626): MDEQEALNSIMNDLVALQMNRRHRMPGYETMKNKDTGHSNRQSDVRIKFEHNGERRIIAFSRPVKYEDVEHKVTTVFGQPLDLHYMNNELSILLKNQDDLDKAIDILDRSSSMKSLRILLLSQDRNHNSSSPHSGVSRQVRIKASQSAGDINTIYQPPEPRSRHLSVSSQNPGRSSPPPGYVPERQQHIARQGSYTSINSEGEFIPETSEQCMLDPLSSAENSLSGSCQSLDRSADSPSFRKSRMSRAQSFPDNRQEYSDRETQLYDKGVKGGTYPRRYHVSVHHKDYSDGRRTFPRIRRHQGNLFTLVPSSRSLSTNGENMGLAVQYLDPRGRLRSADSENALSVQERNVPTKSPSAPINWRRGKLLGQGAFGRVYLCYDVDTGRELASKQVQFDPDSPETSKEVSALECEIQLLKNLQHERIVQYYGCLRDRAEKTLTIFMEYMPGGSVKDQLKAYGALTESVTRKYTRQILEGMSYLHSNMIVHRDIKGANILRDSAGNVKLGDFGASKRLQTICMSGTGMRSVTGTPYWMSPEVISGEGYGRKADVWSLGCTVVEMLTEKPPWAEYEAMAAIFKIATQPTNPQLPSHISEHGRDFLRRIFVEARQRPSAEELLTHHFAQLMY
From the text: as §1

panel of 442 kinases [3] = molecular target: T3, panel of 442 kinases (Homo sapiens, UniProt Q9UBF8); conditions: Compound Concentration 10 µM
T3 construct: purchased KINOMEscan
From the text: as §1

T1 sequence (Q86UX6 whole entry): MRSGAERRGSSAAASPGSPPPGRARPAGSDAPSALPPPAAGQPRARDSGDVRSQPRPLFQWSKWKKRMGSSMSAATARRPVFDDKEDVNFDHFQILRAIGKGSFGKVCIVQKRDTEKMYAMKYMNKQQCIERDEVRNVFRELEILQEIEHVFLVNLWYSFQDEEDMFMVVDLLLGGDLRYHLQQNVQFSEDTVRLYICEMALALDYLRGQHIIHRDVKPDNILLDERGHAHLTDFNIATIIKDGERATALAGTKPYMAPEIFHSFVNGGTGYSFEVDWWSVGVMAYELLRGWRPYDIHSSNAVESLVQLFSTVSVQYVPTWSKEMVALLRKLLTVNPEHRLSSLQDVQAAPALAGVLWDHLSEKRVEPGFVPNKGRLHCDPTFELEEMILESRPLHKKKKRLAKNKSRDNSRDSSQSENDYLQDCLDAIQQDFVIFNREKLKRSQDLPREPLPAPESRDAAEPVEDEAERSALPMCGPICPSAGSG
T3 sequence (Q9UBF8 whole entry): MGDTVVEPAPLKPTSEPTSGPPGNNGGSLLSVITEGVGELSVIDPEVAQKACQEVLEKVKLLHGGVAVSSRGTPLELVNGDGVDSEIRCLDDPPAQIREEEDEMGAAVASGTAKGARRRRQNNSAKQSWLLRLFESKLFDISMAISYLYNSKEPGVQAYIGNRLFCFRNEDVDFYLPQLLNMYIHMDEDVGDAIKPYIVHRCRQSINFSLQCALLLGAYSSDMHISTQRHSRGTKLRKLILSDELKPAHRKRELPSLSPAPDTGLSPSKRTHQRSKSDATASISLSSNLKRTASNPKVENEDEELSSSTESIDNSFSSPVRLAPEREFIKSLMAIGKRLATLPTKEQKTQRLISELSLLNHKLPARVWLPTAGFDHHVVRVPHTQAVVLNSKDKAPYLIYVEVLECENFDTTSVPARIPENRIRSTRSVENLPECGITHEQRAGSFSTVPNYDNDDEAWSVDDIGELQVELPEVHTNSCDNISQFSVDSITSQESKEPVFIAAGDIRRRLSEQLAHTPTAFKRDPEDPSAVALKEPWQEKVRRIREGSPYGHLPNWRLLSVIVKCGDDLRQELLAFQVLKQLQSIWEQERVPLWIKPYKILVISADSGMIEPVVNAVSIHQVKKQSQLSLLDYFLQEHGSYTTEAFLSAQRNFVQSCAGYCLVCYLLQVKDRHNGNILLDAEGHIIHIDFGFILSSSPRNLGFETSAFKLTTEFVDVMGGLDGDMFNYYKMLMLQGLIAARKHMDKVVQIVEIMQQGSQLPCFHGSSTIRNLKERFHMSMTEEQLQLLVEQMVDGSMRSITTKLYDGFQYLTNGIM

## COc1cc(C(=O)N2CCC(N3CCN(C)CC3)CC2)ccc1Nc1ncc2c(n1)N(C)c1ccccc1C(=O)N2C [15 (LRRK2-IN-1)]
Panel of 442 kinases [1]
  % Ctrl, YANK3: 100 % Ctrl
Panel of 442 kinases [2]
  KINOMEscan: MAP3K3: 97
Panel of 442 kinases [3]
  KINOMEscan: PIK4CB: 95

## CCOc1cc(C(=O)N2CCC(N3CCN(C)CC3)CC2)ccc1Nc1ncc2c(n1)N(C1CCCC1)c1ccccc1C(=O)N2C [Compound 26]
Panel of 442 kinases [1]
  % Ctrl, YANK3: 100 % Ctrl
Panel of 442 kinases [2]
  KINOMEscan: MAP3K3: 100
Panel of 442 kinases [3]
  KINOMEscan: PIK4CB: 100

## COc1cc(C(=O)N2CCC(N3CCN(C)CC3)CC2)ccc1Nc1ncc2c(n1)N1CCc3cccc(c31)C(=O)N2C [Compound 24]
Panel of 442 kinases [1]
  % Ctrl, YANK3: 100 % Ctrl
Panel of 442 kinases [2]
  KINOMEscan: MAP3K3: 98

## COc1cc(C(=O)N2CCC(N3CCN(C)CC3)CC2)ccc1Nc1ncc2c(n1)N(C1CCCC1)c1ccccc1C(=O)N2C [Compound 25, 11-cyclopentyl-2-((2-methoxy-4-(4-(4-methylpiperazin-1-yl)piperidine-1-carbonyl)phenyl)amino)-5-methyl-5H-benzo[e]pyrimido[5,4-b][1,4]diazepin-6(11H)-one]
Panel of 442 kinases [1]
  % Ctrl, YANK3: 100 % Ctrl
Panel of 442 kinases [2]
  KINOMEscan: MAP3K3: 100
Panel of 442 kinases [3]
  KINOMEscan: PIK4CB: 100
